Laboratory results reported in ChEMBL document CHEMBL3286248, “Easily accessible polycyclic amines that inhibit the wild-type and amantadine-resistant mutants of the M2 channel of influenza A virus” (J Med Chem, 2014).
Where a name gives a salt, the structure may show the parent alone. Active and inactive are the calls of the source. No cut-off for these calls is given here.

What was measured:
Influenza A virus [1] = settings: mdck
Influenza A virus [2] = settings: mdck; remark: listed apart in the source
MDCK [3] = test: Antiviral activity against Influenza A virus (A/HK/7/87(H3N2)) harboring wild type M2 channel infected in MDCK cells assessed as reduction in plaque number at 0.5 uM after 72 hrs by crystal violet staining; assay type: functional, cell-based; settings: Influenza A virus (A/Hong Kong/7/1987(H3N2))
MDCK [4] = test: Antiviral activity against Influenza A virus (A/HK/7/87(H3N2)) harboring wild type M2 channel infected in MDCK cells assessed as reduction in plaque size at 0.5 uM after 72 hrs by crystal violet staining; assay type: functional, cell-based; settings: Influenza A virus (A/Hong Kong/7/1987(H3N2))
MDCK [5] = assay type: functional, cell-based; settings: Influenza A virus (A/Hong Kong/7/1987(H3N2)), 0.5 to 2 uM
[6] = test system: Matrix protein 2 (Influenza A virus (A/Udorn/307/1972(H3N2))), P0DOF8 [V27A]; settings: Influenza A virus (A/udorn/1972(H3N2))

Structure (SMILES) | EC50 (Influenza A virus [1]) | EC50 (Influenza A virus [2]) | Activity (MDCK [3]) | Activity (MDCK [4]) | inhibition (MDCK [5]) | inhibition [6]
CC(N)C12CC3CC(CC(C3)C1)C2 (stereo unspecified) [RIMANTADINE HYDROCHLORIDE] | 7.6 µM | 5.1 µM | – | – | – | –
CC12CC34CN(C(=N)N)CC35CC1(C)C(C)(C5)C2(C)C4 (stereo unspecified) | > 100 µM | > 100 µM | – | – | – | –
C1CC2C3CNCC3C1C1CC21 (stereo unspecified) | > 100 µM | > 100 µM | – | – | – | –
N=C(N)N1CC2C3CCC(C4CCC43)C2C1 (stereo unspecified) | > 100 µM | > 100 µM | Active | Active | – | –
NC12CC3CC(CC(C3)C1)C2 [AMANTADINE] | 30 µM | – | – | – | – | –
N=C(N)N1CC2C3C=CC(C4CC34)C2C1 (stereo unspecified) | > 100 µM | > 100 µM | – | – | – | –
C1=CC2C1C1C=CC2C2CNCC12 (stereo unspecified) | 1.3 µM | < 0.8 µM | – | – | Active | –
C1=CC2C3CNCC3C1C1CC21 (stereo unspecified) | > 100 µM | > 100 µM | – | – | – | –
C1CC(N2CC3C4CCC(C5CC45)C3C2)CCN1 (stereo unspecified) | > 100 µM | > 100 µM | – | – | – | inactive
N=C(N)N1CC2C3C=CC(C4C=CC43)C2C1 (stereo unspecified) | > 100 µM | > 100 µM | – | – | Active | –
C1=CC2C3CC3C1C1CN(C3CCNCC3)CC21 (stereo unspecified) | ≤ 0.8 µM | < 0.8 µM | – | – | – | inactive
C1CC2C1C1CCC2C2CNCC12 (stereo unspecified) | > 100 µM | > 100 µM | Active | Active | – | –
CC12CC34CNCC35CC1(C)C(C)(C5)C2(C)C4 (stereo unspecified) | 1.8 µM | 3 µM | – | – | Active | –
N=C(N)N1CC2C3CCC(C4CC34)C2C1 (stereo unspecified) | > 100 µM | > 100 µM | – | – | – | –
